Source: patent US8703197B2, “Branched polyamines for delivery of biologically active materials” (International Business Machines Corporation, priority 2012, dated 2014)

Test system: HeLa cells
Test: MTT cytotoxicity of polymer/gene complexes in HeLa cells
Assay type: cell-based, human
Experimental: The cytotoxicity of the modified bPEI-25/gene complexes and modified bPEI-25/siRNA complexes was studied using the standard MTT assay protocol on HepG2, HeLa and SK-OV-3 cells. The GFP plasmid was used for complex formation and treatment of HepG2 and HeLa cells, while the luciferase plasmid was used for complex formation and treatment of SK-OV-3 cells.
HepG2, HeLa and SK-OV-3 cells were seeded onto 96-well plates at densities of 10000 cells, 5000 and 16000 cells per well, respectively, and allowed to grow to 60% to 70% confluency before treatment. Polymer/gene or polymer/siRNA complexes at various N/P ratios were prepared in water as described above. The cells in each well were then incubated with growth medium comprising 10 microliters of polymer/nucleic acid complexes and 100 microliters of fresh medium for 4 hours at 37° C. Following incubation, the medium was replaced with fresh growth medium and incubated further for 68 hours. […] A 100 microliter aliquot from each well was then transferred to a new 96-well plate for determination of absorbance using a microplate spectrophotometer at wavelengths of 550 nm and 690 nm. Relative cell viability was expressed as [A550−A690)sample/(A550−A690)control]×100%. Data were expressed as mean±standard deviations of at least eight replicates per N/P ratio.

Branched Polyethylenimine [bPEI-25]
Maximum N/P ratio for Cell Viability ≧80%, HeLa Max N/P: 20
